What was measured:
[1] = Biological activity (calcitonin activity, MRC U/mg), assayed by the method of Japanese Provisional Patent Publication No. 123500/1985; type: in vivo; details: for biological activity: method of Japanese Provisional Patent Publication No. 123500/1985; for biological activity, in words, compared with Example 1: measured as in Example 1
Procedure: The crude (Oct^1, Cys(CA)^7)-CCT obtained was dissolved in a 1 M acetic acid (5 mg/ml) and purified by the reverse phase high performance liquid chromatography. Chemcopack ODS-H (trade name, .phi.: 10 mm×250 mm) column produced by Chemco Co. was used, with the eluents employed being water (100) - 10% TFA (1) for the eluent A and water (40)-acetonitrile (60) - 10% TFA (1) for the eluent B, and the elution was effected under the linear concentration gradient from the eluent A to the eluent B. Here, the numerals within bracckets represent volume ratios. The fraction corresponding to (Oct^1, Cys(CA)^7)-CCT was collected and lyophilized to obtain 2.8 mg of white powder. The biological activity of the white powder obtained was assayed according to the method as described in Japanese Provisional Patent Publication No. 123500/1985.

[2] = Stability test: heating in sodium citrate buffer, remaining peptide by reverse phase HPLC; details: for Stability (ratio of eluted peak area A after heating to area B without heat treatment): 0.1 M sodium citrate buffer pH 6.0, 10 μg/ml, sealed tube, 80° C., 24 hours, reverse phase HPLC
Procedure: The (Oct^1, Cys(CA)^7)-CCT was dissolved in 0.1 M sodium citrate buffer (pH 6.0) to a concentration of 10 μg/ml. One ml of this solution was left to stand in a sealed tube at 80° C. for 24 hours. By analysis according to the reverse phase HPLC by use of the measurement conditions (1), the eluted peak area A of the remaining (Oct^1, Cys(CA)^7)-CCT was determined. Similarly, the eluted peak area B of the (Oct^1, Cys(CA)^7)-CCT in the sample solution not subjected to the heat treatment was determined, and the ratio of A to B (%) was defined as the index.

Substance | biological activity [1] | Stability (ratio of eluted peak area A after heating to area B without heat treatment) [2] | biological activity, in words, compared with Example 1 [1] | stability, in words, compared with Example 1 ([2]; measured as in Example 1)
(Oct^1, Ala^3, Cys(CA)^7)-CCT | 6100 MRC U/mg | 90% | – | –
(Oct^1, Cys(CA)^7)-CCT | 5400 MRC U/mg | 95% | equal to that obtained in Example 1 | –
(Oct^1, Thr^3, Cys(Acm)^7)-CCT | 7800 MRC U/mg | 82% | – | –
(Oct^1, Thr^3, Cys(CA)^7)-CCT | 7800 MRC U/mg | 95% | – | –
(Oct^1, Cys(Acm)^7)-CCT | 5500 MRC U/mg | – | – | –
(Oct^1, Cys(Acm)^7)-ECT | 5400 MRC U/mg | – | – | –
(Oct^1, Cys^7)-CCT | – | – | substantially equal to those of (Oct^1, Cys(CA)^7)-CCT of Example 1 | substantially equal to those of (Oct^1, Cys(CA)^7)-CCT of Example 1

From patent publication US5010174A, “Novel calcitonin derivative and salt thereof” (Mitsubishi Petrochemical Co., Ltd., priority 1987, dated 1991)
